From EP4273147A1, “SUBSTITUTED SPIROLACTAMS, SALTS THEREOF AND THEIR USE AS HERBICIDALLY ACTIVE SUBSTANCES” (Bayer Aktiengesellschaft, priority 2022, dated 2023)

What was measured:
ECHCG [1] = test: Herbicidal pre-emergence action (Table A2); assay type: in vivo, Echinochloa crus-galli; details: application rate 320 g/ha; visual grading after ca. 3 weeks
Procedure, shortened: (§1)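 Seeds covered with soil after sowing in sandy loam; every pot carried one monocotyledonous and one dicotyledonous weed species as a double sowing.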

SETVI [2] = test: Herbicidal pre-emergence action (Table A5); assay type: in vivo, Setaria viridis; details: visual grading after ca. 3 weeks
Procedure, shortened: as §1

STEME = test: Herbicidal pre-emergence action (Table A6); assay type: in vivo, Stellaria media; details: visual grading after ca. 3 weeks
Procedure, shortened: as §1

POAAN [3] = test: Herbicidal pre-emergence action (Table A7); assay type: in vivo, Poa annua; details: visual grading after ca. 3 weeks
Procedure, shortened: as §1

AMARE = test: Herbicidal pre-emergence action (Table A8); assay type: in vivo, Amaranthus retroflexus; details: application rate 1280 g/ha; visual grading after ca. 3 weeks vs untreated controls (100% = plants have died off, 0% = as control plants)
Text: (§2) Seeds of mono- and dicotyledonous weed plants were sown in plastic pots (double sowings with one species of mono- and one species of dicotyledonous weed plants per pot), in sandy loam, and covered with soil.

VERPE [4] = test: Herbicidal pre-emergence action (Table A11); assay type: in vivo, Veronica persica; details: application rate 1280 g/ha; visual grading after ca. 3 weeks
Procedure, shortened: as §1

DIGSA = test: Herbicidal pre-emergence action, section C (Table C5); assay type: in vivo, Digitaria sanguinalis; details: application rate 320 g/ha; visual grading after ca. 3 weeks
SETVI [5] = test: Herbicidal pre-emergence action, section C (Table C10); assay type: in vivo, Setaria viridis; details: application rate 320 g/ha; visual grading after ca. 3 weeks
ZEAMX [6] = test: Pre-emergence effects on crop plants (Table D1); assay type: in vivo, Zea mays; details: crop plant; application rate 80 g/ha; visual grading after ca. 3 weeks
Text: Seeds of mono- and dicotyledonous weed plants and crop plants were sown, in plastic or organic planting pots, in sandy loam and covered with soil. The compounds according to the invention, formulated in the form of wettable powders (WP) or as emulsifiable concentrates (EC), were applied to the surface of the covering soil as aqueous suspension or emulsion, with the addition of 0.5% of an additive, at an application rate of 600 1 of water/ha (converted).
Following treatment, the pots were placed in a greenhouse and kept under optimum growth conditions for the test plants.

TRZAS [7] = test: Pre-emergence effects on crop plants (Table D2); assay type: in vivo, Triticum aestivum; details: crop plant; application rate 320 g/ha; visual grading after ca. 3 weeks
GLXMA [8] = test: Pre-emergence effects on crop plants (Table D4); assay type: in vivo, Glycine max; details: crop plant; application rate 320 g/ha; visual grading after ca. 3 weeks
BRSNW [9] = test: Pre-emergence effects on crop plants (Table D5); assay type: in vivo, Brassica napus; details: crop plant; application rate 320 g/ha; visual grading after ca. 3 weeks
VIOTR = test: Herbicidal post-emergence action, section E (Table E10); assay type: in vivo, Viola tricolor; details: application rate 320 g/ha; assessed visually after ca. 3 weeks
Text: (§3) 2 to 3 weeks after sowing, the test plants were sprayed in the single-leaf stage.

ZEAMX [10] = test: Post-emergence effects on crop plants (Table F1); assay type: in vivo, Zea mays; details: application rate 320 g/ha, crop plant ZEAMX
Text: as §3

TRZAS [11] = test: Post-emergence effects on crop plants (Table F2); assay type: in vivo, Triticum aestivum; details: application rate 320 g/ha, crop plant TRZAS
Text: as §3

ORYZA = test: Post-emergence effects on crop plants (Table F3); assay type: in vivo, Oryza sativa; details: application rate 320 g/ha, crop plant ORYZA
Text: as §3

GLXMA [12] = test: Post-emergence effects on crop plants (Table F4); assay type: in vivo, Glycine max; details: application rate 80 g/ha, crop plant GLXMA
Text: as §3

BRSNW [13] = test: Post-emergence effects on crop plants (Table F5); assay type: in vivo, Brassica napus; details: application rate 320 g/ha, crop plant BRSNW
Text: as §3

ABUTH [14] = test: Herbicidal pre-emergence action (Table A1); assay type: in vivo, Abutilon theophrasti; details: application rate 1280 g/ha; visual grading after ca. 3 weeks vs untreated controls (100% = plants have died off, 0% = as control plants)
Text: as §2

LOLRI = test: Herbicidal pre-emergence action (Table A3); assay type: in vivo, Lolium rigidum; details: application rate 320 g/ha; visual grading after ca. 3 weeks
Procedure, shortened: as §1

MATIN [15] = test: Herbicidal pre-emergence action (Table A4); assay type: in vivo, Matricaria inodora; details: application rate 320 g/ha; visual grading after ca. 3 weeks
Procedure, shortened: as §1

ALOMY = test: Herbicidal pre-emergence action (Table A9); assay type: in vivo, Alopecurus myosuroides; details: application rate 1280 g/ha; visual grading after ca. 3 weeks
Procedure, shortened: as §1

ABUTH [16] = test: Herbicidal post-emergence action (Table B1); assay type: in vivo, Abutilon theophrasti; details: application rate 1280 g/ha; treated at one-leaf stage; rated visually after about 3 weeks vs untreated controls (100% = plants have died, 0% = like control plants)
Procedure: (§4) Seeds of mono- and dicotyledonous weed plants were placed in plastic pots in sandy loam soil (doubly sown with in each case one species of mono- or dicotyledonous weed plants per pot), covered with soil and cultivated in a greenhouse under controlled growth conditions. 2 to 3 weeks after sowing, the test plants were treated at the one-leaf stage. […] After the test plants had been kept in the greenhouse under optimum growth conditions for about 3 weeks, the activity of the preparations was rated visually in comparison to untreated controls. For example, 100% activity = the plants have died, 0% activity = like control plants.

ECHCG [17] = test: Herbicidal post-emergence action (Table B3); assay type: in vivo, Echinochloa crus-galli; details: application rate 320 g/ha; rated visually after about 3 weeks
Procedure, shortened: (§5)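 Greenhouse pot assay, sandy loam soil, one weed species per pot. Application at one-leaf stage. Readout ~3 wk post-treatment: visual % activity, 100 = dead, 0 = as untreated.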

MATIN [18] = test: Herbicidal post-emergence action (Table B6); assay type: in vivo, Matricaria inodora; details: application rate 1280 g/ha; rated visually after about 3 weeks
Procedure: as §4

POAAN [19] = test: Herbicidal post-emergence action (Table B7); assay type: in vivo, Poa annua; details: application rate 1280 g/ha
Procedure, shortened: as §5

VERPE [20] = test: Herbicidal post-emergence action (Table B10); assay type: in vivo, Veronica persica; details: application rate 1280 g/ha
Procedure, shortened: as §5

## CC(c1ccccc1F)N1CCCC2(CCCN(C(C)c3ccccc3F)C2=O)C1=O (centres unmarked) [I-060]
ECHCG [1]
  pre-emergence activity against ECHCG: 90%
SETVI [2]; application rate 1280 g/ha
  pre-emergence activity against SETVI: 100%
STEME; application rate 1280 g/ha
  pre-emergence activity against STEME: 90%
POAAN [3]; application rate 1280 g/ha
  pre-emergence activity against POAAN: 100%
AMARE
  pre-emergence activity against AMARE: 90%
VERPE [4]
  pre-emergence activity against VERPE: 90%
DIGSA
  pre-emergence activity against DIGSA: 100%
SETVI [5]
  pre-emergence activity against SETVI: 100%
ZEAMX [6]
  pre-emergence activity against ZEAMX: 0%
TRZAS [7]
  pre-emergence activity against TRZAS: 10%
GLXMA [8]
  pre-emergence activity against GLXMA: 10%
BRSNW [9]
  pre-emergence activity against BRSNW: 10%
VIOTR
  post-emergence activity against VIOTR: 90%
ZEAMX [10]
  post-emergence activity against ZEAMX: 10%
TRZAS [11]
  post-emergence activity against TRZAS: 0%
ORYZA
  post-emergence activity against ORYZA: 0%
GLXMA [12]
  post-emergence activity against GLXMA: 0%
BRSNW [13]
  post-emergence activity against BRSNW: 0%

## O=C1N(Cc2ccccc2F)CCCC12CCCN(Cc1c(F)cccc1F)C2=O (racemic) [I-031]
ABUTH [14]
  pre-emergence activity against ABUTH: 90%
ECHCG [1]
  pre-emergence activity against ECHCG: 100%
LOLRI
  pre-emergence activity against LOLRI: 100%
MATIN [15]
  pre-emergence activity against MATIN: 90%
SETVI [2]; application rate 320 g/ha
  pre-emergence activity against SETVI: 100%
STEME; application rate 320 g/ha
  pre-emergence activity against STEME: 90%
POAAN [3]; application rate 320 g/ha
  pre-emergence activity against POAAN: 100%
ALOMY
  pre-emergence activity against ALOMY: 90%
VERPE [4]
  pre-emergence activity against VERPE: 90%
ABUTH [16]
  post-emergence activity against ABUTH: 90%
ECHCG [17]
  post-emergence activity against ECHCG: 90%
MATIN [18]
  post-emergence activity against MATIN: 90%
POAAN [19]
  post-emergence activity against POAAN: 90%
VERPE [20]
  post-emergence activity against VERPE: 90%
